From ChEMBL document CHEMBL1137850, “Pyridoxine as a template for the design of antiplatelet agents” (2004)
“And” between values parts separate entries of the source, which are not always exact repeats. Identical values can stand only once.

Legend:
[1] = Percent reduction of ADP (4 uM) induced platelet aggregation was determined at 0.5 mM concentration; format: functional, Homo sapiens
[2] = Percent reduction of thrombin receptor activating peptide (12 uM) induced platelet aggregation was determined at 0.5 mM concentration; format: functional, Homo sapiens
[3] = Percent reduction of collagen (5 ug/mL) induced platelet aggregation was determined at 0.5 mM concentration; format: functional, Homo sapiens
[4] = Percent reduction of collagen (1 ug/mL) induced platelet aggregation was determined at 0.5 mM concentration; format: functional, Homo sapiens
[5] = Percent reduction of collagen (5 ug/mL) induced platelet aggregation was determined at 0.25 mM concentration; format: functional, Homo sapiens
Rattus norvegicus [6] = test: Percent reduction in infarct volume after treatment at 20.0 mg/kg dose; format: functional
Rattus norvegicus [7] = test: Percent reduction in infarct volume after treatment at 40.0 mg/kg dose; format: functional
Rattus norvegicus [8] = test: Percent reduction in infarct size after bolus injection at 0.07 mol/kg dose; format: functional
[9] = Percent reduction of thrombin receptor activating peptide (12 uM) induced platelet aggregation was determined at 0.25 mM concentration; format: functional, Homo sapiens
[10] = Percent reduction of collagen (1 ug/mL) induced platelet aggregation was determined at 0.25 mM concentration; format: functional, Homo sapiens
Rattus norvegicus [11] = test: Percent reduction in infarct volume after treatment at 0.0 mg/kg dose; format: functional
Rattus norvegicus [12] = test: Percent reduction in infarct volume after treatment at 10.0 mg/kg dose; format: functional
[13] = Percent reduction of ADP (4 uM) induced platelet aggregation was determined at 0.25 mM concentration; format: functional, Homo sapiens
Rattus norvegicus [14] = test: Percent reduction in infarct size after bolus injection at 0.1 mol/kg dose; format: functional

In the case of `Cc1ncc(CNC(=O)Nc2ccc(F)cc2)c(CO)c1O`, the Reduction [1] is reported as 0%, the Reduction [2] is reported as 0% and the Reduction [3] is reported as 1%. It also gave a Reduction [4] of 0%.

`Cc1ncc(C/N=C(\S)Nc2ccc(F)cc2)c(CO)c1O` gave a Reduction [1] of 18%, a Reduction [2] of 6% and a Reduction [3] of 4%. It also gave a Reduction [4] of 23%.

For `Cc1ncc(CNc2ccc(C(=N)N)cc2)c(CO)c1O`, the Reduction [1] was 79%, the Reduction [2] was 88% and the Reduction [3] was 24%. For the same compound, the Reduction [4] was 10%.

In the case of `Cc1ncc(Cn2cnnn2)c(CO)c1O`, the Reduction [1] is reported as 4%, the Reduction [2] is reported as 7% and the Reduction [3] is reported as 0%. It also gave a Reduction [4] of 6%.

Compound `Cc1ncc(Cn2nnc(N)n2)c(CO)c1O` has a Reduction [1] of 0%, a Reduction [2] of 2% and a Reduction [3] of 0%. It also gave a Reduction [4] of 1%.

Compound `Cc1ncc(CNc2ccc(-c3ccc(C(=N)N)cc3)cc2)c(CO)c1O` has a Reduction [5] of 1%, a Reduction (Rattus norvegicus [6]) of 26.5% and a Reduction (Rattus norvegicus [7]) of 2.9%. The Reduction (Rattus norvegicus [8]) was 30%, the Reduction [1] was 82% and 66% and the Reduction [9] was 93%. It also gave a Reduction [10] of 41%, a Reduction [3] of 30% and a Reduction (Rattus norvegicus [11]) of 40%. For the same compound, the Reduction [4] was 93%, the Reduction (Rattus norvegicus [12]) was 30.5% and the Reduction [13] was 63%.

For `Cc1ncc(Cn2ccnc2C)c(CO)c1O`, the Reduction [1] was 1%, the Reduction [2] was 3% and the Reduction [3] was 1%. For the same compound, the Reduction [4] was 0%.

`Cc1ncc(COP(=O)(O)O)c(C=O)c1O` [PYRIDOXAL PHOSPHATE ANHYDROUS] gave a Reduction [1] of 0%, a Reduction [2] of 0% and a Reduction [3] of 0%. The Reduction [4] was 0% and the Reduction (Rattus norvegicus [14]) was 31%.

`Cc1ncc(CO)c(CO)c1O` [PYRIDOXINE] showed a Reduction [1] of 0%, a Reduction [2] of 0% and a Reduction [3] of 4%. The Reduction [4] was 4%.
